# Source: ChEMBL document CHEMBL4706653, “Ultra-short lipopeptides against gram-positive bacteria while alleviating antimicrobial resistance” (Eur J Med Chem, 2021)
# The source made the active and inactive calls. The calls are words filed in the database; no cut-off is given here. Residues, ends and D or L forms follow the SMILES beside them. *: point of attachment. Stearoyl = CCCCCCCCCCCCCCCCCC(=O)*
# Legend:
# Erythrocyte = experiment: Hemolytic activity against mouse erythrocytes measured after 1 hr; type: ADME, cell-based
# Staphylococcus aureus [1] = experiment: Antimicrobial activity against methicillin-resistant Staphylococcus aureus 75 after 18 hrs by broth microdilution method; type: functional
# Staphylococcus aureus [2] = experiment: Antimicrobial activity against Staphylococcus aureus ATCC 25923 after 18 hrs by broth microdilution method; type: functional
# Bacillus subtilis = experiment: Antimicrobial activity against Bacillus subtilis ATCC 23857 after 18 hrs by broth microdilution method; type: functional
# Staphylococcus aureus [3] = experiment: Antimicrobial activity against methicillin-resistant Staphylococcus aureus 113 after 18 hrs by broth microdilution method; type: functional
# Staphylococcus aureus [4] = experiment: Antimicrobial activity against Staphylococcus aureus ATCC 29213 after 18 hrs by broth microdilution method; type: functional
# [5] = Therapeutic index, ratio of MHC for mouse RBC to geometric mean of peptide MIC for Staphylococcus epidermidis ATCC 12228; type: toxicity; conditions: pooled result: one value given for 6 cell lines, strains, targets or settings, read-out: TI
# [6] = tested on: Staphylococcus epidermidis; experiment: Antimicrobial activity against Staphylococcus epidermidis ATCC 12228 after 18 hrs by broth microdilution method; type: functional
# Staphylococcus aureus [7] = experiment: Antimicrobial activity against Staphylococcus aureus ATCC 25923 infected in neutropenia BALB/c mouse assessed as reduction in lung bacterial load at 10 to 20 mg/kg, ip administered staring from 2 hrs post infection and measured 8 hrs post-infected; type: functional, organism-based; conditions: dose 10-20 mg/kg, time 6.0 hrs
# Staphylococcus aureus [8] = experiment: Induction of nucleic acid leakage in Staphylococcus aureus ATCC 25923 at 4 times MIC; type: functional
# [9] = Binding affinity to LTA (unknown origin) assessed as bacterial killing at 2 times MIC preincubated for 1 hr followed by Staphylococcus aureus ATCC 25923 addition and measured after 2 hrs by colony counting method; conditions: time 3.0 hrs
# Staphylococcus aureus [10] = experiment: Antimicrobial activity against Staphylococcus aureus ATCC 25923 assessed as bacterial killing preincubated for 4 hrs followed by replating on MHB agar and measured after 24 hrs by time kill assay; type: functional, organism-based; conditions: time 28.0 hrs
# Cell membrane [11] = experiment: Induction of membrane disruption in Staphylococcus aureus ATCC 25923 measured after 2 hrs by propidium iodide staining based confocal laser scanning microscopic analysis; type: subcellular
# Staphylococcus aureus [12] = experiment: Antimicrobial activity against Staphylococcus aureus ATCC 25923 infected in neutropenia BALB/c mouse assessed as reduction in bacterial load in kidney at 10 to 20 mg/kg, ip administered staring from 2 hrs post infection and measured 8 hrs post-infected; type: functional, organism-based; conditions: dose 10-20 mg/kg, time 6.0 hrs
# Lipopolysaccharide (LPS) = experiment: Binding affinity to LPS (unknown origin) assessed as bacterial killing at 2 times MIC preincubated for 1 hr followed by Staphylococcus aureus ATCC 25923 addition and measured after 2 hrs by colony counting method; conditions: time 3.0 hrs
# Staphylococcus aureus [13] = experiment: Antibiofilm activity against Staphylococcus aureus ATCC 25923 at 0.5 to 8 uM after 24 hrs by crystal violet staining based assay; type: functional, organism-based; conditions: dose 0.5-8 µM
# Staphylococcus aureus [14] = experiment: Antibiofilm activity against ciprofloxacin-resistant Staphylococcus aureus ATCC 25923 at 0.5 to 8 uM after 24 hrs by crystal violet staining based assay; type: functional, organism-based; conditions: dose 0.5-8 µM
# Mus musculus = experiment: Antiinflammatory activity in Staphylococcus aureus ATCC 25923 infected neutropenia BALB/c mouse assessed as reduction in TNFalpha level in serum at 10 to 20 mg/kg, ip administered staring from 2 hrs post infection and measured 8 hrs post-infected; type: functional, organism-based; conditions: dose 10-20 mg/kg, time 6.0 hrs
# Staphylococcus aureus [15] = experiment: Induction of reactive oxygen species generation in Staphylococcus aureus ATCC 25923 by […] dye based fluorescence assay; type: functional, organism-based
# Cell membrane [16] = experiment: Induction of cytoplasmic membrane disruption in Staphylococcus aureus ATCC 25923 measured for 15 mins by DiSC3-5 dye based fluorescence assay
# Staphylococcus aureus [17] = experiment: Antimicrobial activity against Staphylococcus aureus ATCC 25923 infected in neutropenia BALB/c mouse assessed as reduction in bacterial load in liver at 10 to 20 mg/kg, ip administered staring from 2 hrs post infection and measured 8 hrs post-infected; type: functional, organism-based; conditions: dose 10-20 mg/kg, time 6.0 hrs
# Staphylococcus aureus [18] = experiment: Antimicrobial activity against Staphylococcus aureus ATCC 25923 infected in neutropenia BALB/c mouse assessed as reduction in bacterial load in spleen at 10 to 20 mg/kg, ip administered staring from 2 hrs post infection and measured 8 hrs post-infected; type: functional, organism-based; conditions: dose 10-20 mg/kg, time 6.0 hrs
# Cell membrane [19] = experiment: Induction of membrane disruption in Staphylococcus aureus ATCC 25923 measured after 2 hrs by propidium iodide staining based flow cytometry
# Staphylococcus aureus [20] = experiment: Antimicrobial activity against Staphylococcus aureus ATCC 25923 assessed as bacterial killing at MIC preincubated for 4 hrs followed by replating on MHB agar and measured after 24 hrs by time kill assay; type: functional, organism-based; conditions: time 28.0 hrs
# Staphylococcus aureus [21] = experiment: Antimicrobial activity against Staphylococcus aureus ATCC 25923 assessed as bacterial killing at 2 times MIC preincubated for 2 hrs followed by replating on MHB agar and measured after 24 hrs by time kill assay; type: functional, organism-based; conditions: time 26.0 hrs
# Staphylococcus aureus [22] = experiment: Antimicrobial activity against Staphylococcus aureus ATCC 25923 assessed as bacterial killing at 0.5 times MIC preincubated for 4 hrs followed by replating on MHB agar and measured after 24 hrs by time kill assay; type: functional, organism-based; conditions: time 28.0 hrs
# Staphylococcus aureus [23] = experiment: Ratio of MIC for antimicrobial activity against Staphylococcus aureus ATCC 25923 in presence of 5% serum to MIC for antimicrobial activity against Staphylococcus aureus ATCC 25923 in absence of serum; type: functional
# [24] = tested on: Staphylococcus epidermidis; experiment: Antimicrobial activity against Staphylococcus epidermidis ATCC 12228 at 0.5 times MIC after 15 passages by broth microdilution method; type: functional, organism-based
# Cell membrane [25] = experiment: Induction of membrane disruption in Staphylococcus aureus ATCC 25923 assessed as PI-positive cells at 4 times MIC measured after 2 hrs by propidium iodide staining based flow cytometry relative to control
# Cell membrane [26] = experiment: Induction of membrane disruption in Staphylococcus aureus ATCC 25923 assessed as PI-positive cells at 2 times MIC measured after 2 hrs by propidium iodide staining based flow cytometry relative to control
# Staphylococcus aureus [27] = experiment: Ratio of MIC for antimicrobial activity against Staphylococcus aureus ATCC 25923 in presence of 10% serum to MIC for antimicrobial activity against Staphylococcus aureus ATCC 25923 in absence of serum; type: functional
# Staphylococcus aureus [28] = experiment: Antimicrobial activity against Staphylococcus aureus ATCC 25923 assessed as bacterial killing at 4 times MIC preincubated for 30 mins followed by replating on MHB agar and measured after 24 hrs by time kill assay; type: functional, organism-based; conditions: time 24.5 hrs
# HEK-293T = experiment: Cytotoxicity against HEK293T cells assessed as reduction in cell viability at 1 uM measured after 24 hrs by MTT assay; type: cell-based; conditions: human
# Staphylococcus aureus [29] = experiment: Ratio of MIC for antimicrobial activity against Staphylococcus aureus ATCC 25923 in presence of 2.5% serum to MIC for antimicrobial activity against Staphylococcus aureus ATCC 25923 in absence of serum; type: functional
# Staphylococcus aureus [30] = experiment: Antimicrobial activity against Staphylococcus aureus ATCC 25923 at 0.5 times MIC after 15 passages by broth microdilution method; type: functional, organism-based
SMILES,MHC10 (Erythrocyte),MIC (Staphylococcus aureus [1]),MIC (Staphylococcus aureus [2]),MIC (Bacillus subtilis),MIC (Staphylococcus aureus [3]),MIC (Staphylococcus aureus [4]),selectivity ratio [5],MIC [6],other results
CCCCCCCCCCCCCCCCCC(=O)N[C@@H](CCCNC(=N)N)C(=O)N[C@@H](CCCNC(=N)N)C(=O)N[C@@H](CCCNC(=N)N)C(N)=O (Stearoyl-Arg-Arg-Arg-NH2),32 µM,4 µM,4 µM,8 µM,2 µM,4 µM,4,8 µM,–
CCCCCCCCCCCCCCCCCC(=O)N[C@@H](CCCNC(=N)N)C(=O)N[C@@H](CCCNC(=N)N)C(=O)N[C@@H](Cc1c[nH]c2ccccc12)C(N)=O (Stearoyl-Arg-Arg-Trp-NH2),32 µM,16 µM,8 µM,8 µM,8 µM,8 µM,3.69,4 µM,–
CCCCCCCCCCCCCCCCCC(=O)N[C@@H](CCCNC(=N)N)C(=O)N[C@@H](Cc1c[nH]c2ccccc12)C(=O)N[C@@H](CCCNC(=N)N)C(N)=O (Stearoyl-Arg-Trp-Arg-NH2),32 µM,8 µM,16 µM,16 µM,8 µM,128 µM,1.04,8 µM,–
CCCCCCCCCCCCCCCCCC(=O)N[C@@H](CCCNC(=N)N)C(=O)N[C@@H](Cc1c[nH]c2ccccc12)C(=O)N[C@@H](Cc1c[nH]c2ccccc12)C(N)=O (Stearoyl-Arg-Trp-Trp-NH2),256 µM,> 128 µM,> 128 µM,> 128 µM,> 128 µM,> 128 µM,1.09,128 µM,–
CCCCCCCCCCCCCCCCCC(=O)N[C@@H](Cc1c[nH]c2ccccc12)C(=O)N[C@@H](CCCNC(=N)N)C(=O)N[C@@H](CCCNC(=N)N)C(N)=O (Stearoyl-Trp-Arg-Arg-NH2),32 µM,8 µM,16 µM,16 µM,16 µM,32 µM,2,8 µM,–
O=C(O)c1cn(C2CC2)c2cc(N3CCNCC3)c(F)cc2c1=O [CIPROFLOXACIN],–,128 µM,1 µM,< 1 µM,< 1 µM,1 µM,–,< 1 µM,Activity (Staphylococcus aureus [7]): Active; Activity (Staphylococcus aureus [8]): Active; Activity [9]: inactive; Activity (Staphylococcus aureus [10]): inactive; Activity (Cell membrane [11]): inactive; Activity (Staphylococcus aureus [12]): Active; Activity (Lipopolysaccharide (LPS)): inactive; Activity (Staphylococcus aureus [13]): Active; Activity (Staphylococcus aureus [14]): Active; Activity (Mus musculus): Active; Activity (Staphylococcus aureus [15]): Active; Activity (Cell membrane [16]): inactive; Activity (Staphylococcus aureus [17]): Active; Activity (Staphylococcus aureus [18]): Active; Activity (Cell membrane [19]): inactive
CC[C@H](C)[C@H](NC(=O)CN)C(=O)NCC(=O)N[C@@H](C)C(=O)N[C@H](C(=O)N[C@@H](CC(C)C)C(=O)N[C@@H](CCCCN)C(=O)N[C@H](C(=O)N[C@@H](CC(C)C)C(=O)N[C@H](C(=O)N[C@H](C(=O)NCC(=O)N[C@@H](CC(C)C)C(=O)N1CCC[C@H]1C(=O)N[C@@H](C)C(=O)N[C@@H](CC(C)C)C(=O)N[C@H](C(=O)N[C@@H](CO)C(=O)N[C@@H](Cc1c[nH]c2ccccc12)C(=O)N[C@H](C(=O)N[C@@H](CCCCN)C(=O)N[C@@H](CCCNC(=N)N)C(=O)N[C@@H](CCCCN)C(=O)N[C@@H](CCCNC(=N)N)C(=O)N[C@@H](CCC(N)=O)C(=O)N[C@@H](CCC(N)=O)C(N)=O)[C@@H](C)CC)[C@@H](C)CC)[C@@H](C)O)[C@@H](C)O)C(C)C)C(C)C [MELITTIN],2 µM,–,–,–,–,–,0.8,–,Activity (Staphylococcus aureus [20]): Active; Activity (Staphylococcus aureus [21]): Active; Activity (Staphylococcus aureus [22]): inactive; Ratio (Staphylococcus aureus [23]): 2; Activity [24]: Active; Activity (Staphylococcus aureus [8]): inactive; Activity [9]: Active; Activity (Cell membrane [25]): 92.5%; Activity (Cell membrane [26]): 91.9%; Ratio (Staphylococcus aureus [27]): 2; Activity (Cell membrane [11]): Active; Activity (Lipopolysaccharide (LPS)): Active; Activity (Staphylococcus aureus [28]): Active; Activity (HEK-293T): Toxic; Activity (Staphylococcus aureus [13]): Active; Activity (Staphylococcus aureus [14]): Active; Ratio (Staphylococcus aureus [29]): 2; Activity (Staphylococcus aureus [15]): Active; Activity (Cell membrane [16]): Active; Activity (Staphylococcus aureus [30]): Active
